This is an account of results in patent publication US20260049085A1, “CYCLIC COMPOUNDS AND METHODS OF USING SAME” (SCHRÖDINGER, INC., priority 2022, published 2026).

pIC50: −log10 of the molar value.

This experiment deals with T1, full-length MALT1 protein His-MALT1(1-824) (Homo sapiens, UniProt Q9UDY8).
T1 construct: full-length MALT1 protein His-MALT1(1-824); His (N); made in house; host or cells: baculovirus-infected insect cells
T1 sequence (Q9UDY8 1-824): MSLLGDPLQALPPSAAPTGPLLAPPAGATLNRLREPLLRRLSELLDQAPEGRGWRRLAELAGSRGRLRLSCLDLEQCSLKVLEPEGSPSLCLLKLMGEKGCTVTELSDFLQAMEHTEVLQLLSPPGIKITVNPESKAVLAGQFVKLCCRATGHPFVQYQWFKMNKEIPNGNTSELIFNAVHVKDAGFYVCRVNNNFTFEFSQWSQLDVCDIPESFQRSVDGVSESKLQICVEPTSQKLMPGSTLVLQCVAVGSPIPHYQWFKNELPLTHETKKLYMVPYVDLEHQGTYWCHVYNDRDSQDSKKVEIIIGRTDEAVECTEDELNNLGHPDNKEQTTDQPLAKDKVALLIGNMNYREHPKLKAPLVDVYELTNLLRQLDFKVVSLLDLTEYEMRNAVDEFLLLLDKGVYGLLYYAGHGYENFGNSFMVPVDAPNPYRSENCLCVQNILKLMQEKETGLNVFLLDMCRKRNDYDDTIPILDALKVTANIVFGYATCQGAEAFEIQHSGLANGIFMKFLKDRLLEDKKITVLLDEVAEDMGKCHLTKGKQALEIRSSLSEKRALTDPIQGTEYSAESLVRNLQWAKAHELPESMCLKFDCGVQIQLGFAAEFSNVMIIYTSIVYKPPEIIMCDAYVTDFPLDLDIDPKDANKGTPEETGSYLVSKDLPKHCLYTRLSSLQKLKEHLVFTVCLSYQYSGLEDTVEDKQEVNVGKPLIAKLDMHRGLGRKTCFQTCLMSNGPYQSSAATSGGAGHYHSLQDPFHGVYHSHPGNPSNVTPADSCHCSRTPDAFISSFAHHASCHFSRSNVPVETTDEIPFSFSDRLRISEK
Kind of experiment: MALT1 protease assay (Ac-LRSR-AMC tetrapeptide substrate, fluorescence). It is filed as biochemical. The settings on record: 1 nM MALT1, 25 μM Ac-LRSR-AMC, 2 h pre-incubation, 8 hr incubation at RT. As for the experimental part: MALT1 protease activity was assessed in an in vitro assay using a tetrapeptide as substrate and full-length MALT1 protein His-MALT1(1-824) purified from baculovirus-infected insect cells.
The final assay buffer includes 1 nM of MALT1 full-length protein, 25 μM Ac-LRSR-AMC substrate, 50 mM Tris pH 7.5, 600 mM Sodium Citrate, 1 mM DTT, 1 mM EDTA, and 0.05% BSA in 384-well plate format using black microtiter square well plates (Optiplate 384-F, Perkin Elmer).
Test compounds were dissolved in 100% DMSO stock of 10 mM, with final DMSO concentration of 0.1%. Test compounds were pre-incubated with MALT1 protein for 2 h at room temperature. Substrate was added after the pre-incubation and fluorescence signal was measured using Envision at excitation 355 nm and emission 460 nm after 8 hr incubation at RT.
The fluorescence units were transformed to percentage of remaining activity by using the high control (HC, median of fluorescence signal from wells containing MALT1 protein, substrate, and DMSO) and low control (LC, median of fluorescence signal from wells with substrate only) with the formula below: […]
IC50 and Hill coefficients were obtained using Graph Pad Prism (Graph Pad software, Inc, USA) with non-linear regression analysis.

`Cn1cc([C@]2(C)C[C@H](C(=O)Nc3cnc(-n4nccn4)c(Cl)c3)c3cnc4cc(F)nn4c32)cn1` (racemic) [Example 3, (cis)-N-(5-chloro-6-(2H-1,2,3-triazol-2-yl)pyridin-3-yl)-2-fluoro-8-methyl-8-(1-methyl-1H-pyrazol-4-yl)-7,8-dihydro-6H-cyclopenta[e]pyrazolo[1,5-a]pyrimidine-6-carboxamide] had a pIC50 of 6.00 to 7.00.

`CC(F)(F)n1ccc([C@]2(C)C[C@H](C(=O)Nc3cnc(-c4ncccn4)c(Cl)c3)c3cnc4cc(F)nn4c32)n1` (racemic) [Example 170, (cis)-N-(5-chloro-6-(pyrimidin-2-yl)pyridin-3-yl)-8-(1-(1,1-difluoroethyl)-1H-pyrazol-3-yl)-2-fluoro-8-methyl-7,8-dihydro-6H-cyclopenta[e]pyrazolo[1,5-a]pyrimidine-6-carboxamide] gave a pIC50 of 6.00 to 7.00.

With `Cc1cc2ncc3c(n2n1)[C@@](C)(c1ccn(C(F)F)n1)C[C@@H]3C(=O)Nc1cnc(-c2ncccn2)c(C(F)(F)F)c1` (racemic) [Example 195, (tras)-8-(1-(difluoromethyl)-1H-pyrazol-3-yl)-2,8-dimethyl-N-(6-(pyrimidin-2-yl)-5-(trifluoromethyl)pyridin-3-yl)-7,8-dihydro-6H-cyclopenta[e]pyrazolo[1,5-a]pyrimidine-6-carboxamide], the pIC50 is 7.00 to 8.00.

Turning to `Cc1cc2ncc3c(n2n1)[C@](C)(c1ccn(C(F)F)n1)C[C@@H]3C(=O)Nc1cnc(-c2ncccn2)c(C(F)(F)F)c1` (racemic) [Example 196, (cis)-8-(1-(difluoromethyl)-1H-pyrazol-3-yl)-2,8-dimethyl-N-(6-(pyrimidin-2-yl)-5-(trifluoromethyl)pyridin-3-yl)-7,8-dihydro-6H-cyclopenta[e]pyrazolo[1,5-a]pyrimidine-6-carboxamide], the pIC50 is 6.00 to 7.00.

`Cn1cc([C@]2(C)C[C@@H](C(=O)Nc3cnc(-n4nccn4)c(Cl)c3)c3cnc4cc(F)nn4c32)cn1` (single isomer, unassigned) [Example 2] had a pIC50 not above 6.00.

The compound `Cn1cc([C@]2(C)C[C@@H](C(=O)Nc3cnc(-n4nccn4)c(C(F)(F)F)c3)c3cnc4cc(F)nn4c32)cn1` (single isomer, unassigned) [Example 4] had a pIC50 not above 6.00.

`Cn1cc([C@@]2(C)C[C@@H](C(=O)Nc3cnc(-n4nccn4)c(C(F)(F)F)c3)c3cnc4cc(F)nn4c32)cn1` (single isomer, unassigned) [Example 6] had a pIC50 of 6.00 to 7.00.

The compound `Cn1cc([C@]2(C)C[C@H](C(=O)Nc3cnc(-n4nccn4)c(C(F)(F)F)c3)c3cnc4cc(F)nn4c32)cn1` (single isomer, unassigned) [Example 7] had a pIC50 of 6.00 to 7.00.

As for `Cn1cc([C@]2(C)C[C@@H](C(=O)Nc3cnc(-n4nccn4)c(Cl)c3)c3cnc4cc(Cl)nn4c32)cn1` (single isomer, unassigned) [Example 9], the pIC50 was not above 6.00.

`Cn1cc([C@]2(C)C[C@H](C(=O)Nc3cnc(-n4nccn4)c(Cl)c3)c3cnc4cc(Cl)nn4c32)cn1` (single isomer, unassigned) [Example 10] gave a pIC50 of 6.00 to 7.00.

On to `Cn1cc([C@@]2(C)C[C@@H](C(=O)Nc3cnc(-n4nccn4)c(Cl)c3)c3cnc4cc(Cl)nn4c32)cn1` (single isomer, unassigned) [Example 11], for which the pIC50 is 6.00 to 7.00.

Take `Cn1cc([C@]2(C)C[C@@H](C(=O)Nc3cnc(-n4nccn4)c(Cl)c3)c3cnc4c(F)c(F)nn4c32)cn1` (single isomer, unassigned) [Example 13]: the pIC50 was not above 6.00.

As to `Cn1cc([C@]2(C)C[C@H](C(=O)Nc3cnc(-n4nccn4)c(Cl)c3)c3cnc4c(F)c(F)nn4c32)cn1` (single isomer, unassigned) [Example 14], the pIC50 is 6.00 to 7.00.

The compound `Cn1cc([C@@]2(C)C[C@@H](C(=O)Nc3cnc(-n4nccn4)c(Cl)c3)c3cnc4c(F)c(F)nn4c32)cn1` (single isomer, unassigned) [Example 15] showed a pIC50 of 6.00 to 7.00.

The compound `Cn1cc([C@@]2(C)C[C@H](C(=O)Nc3cnc(-n4nccn4)c(Cl)c3)c3cnc4c(Cl)c(F)nn4c32)cn1` (single isomer, unassigned) [Example 16] gave a pIC50 of 6.00 to 7.00.

`Cn1cc([C@]2(C)C[C@@H](C(=O)Nc3cnc(-n4nccn4)c(Cl)c3)c3cnc4c(Cl)c(F)nn4c32)cn1` (single isomer, unassigned) [Example 17] gave a pIC50 not above 6.00.

Compound `Cn1cc([C@]2(C)C[C@H](C(=O)Nc3cnc(-n4nccn4)c(Cl)c3)c3cnc4c(Cl)c(F)nn4c32)cn1` (single isomer, unassigned) [Example 18, cis-3-chloro-N-(5-chloro-6-(2H-1,2,3-triazol-2-yl)pyridin-3-yl)-2-fluoro-8-methyl-8-(1-methyl-1H-pyrazol-4-yl)-7,8-dihydro-6H-cyclopenta[e]pyrazolo[1,5-a]pyrimidine-6-carboxamide] showed a pIC50 not above 6.00.

On to `Cn1cc([C@@]2(C)C[C@@H](C(=O)Nc3cnc(-n4nccn4)c(Cl)c3)c3cnc4c(Cl)c(F)nn4c32)cn1` (single isomer, unassigned) [Example 19, cis-3-chloro-N-(5-chloro-6-(2H-1,2,3-triazol-2-yl)pyridin-3-yl)-2-fluoro-8-methyl-8-(1-methyl-1H-pyrazol-4-yl)-7,8-dihydro-6H-cyclopenta[e]pyrazolo[1,5-a]pyrimidine-6-carboxamide], for which the pIC50 is not above 6.00.

As to `CCn1cc([C@]2(C)C[C@@H](C(=O)Nc3cnc(-n4nccn4)c(Cl)c3)c3cnc4cc(F)nn4c32)cn1` (single isomer, unassigned) [Example 21], the pIC50 was not above 6.00.

The compound `CCn1cc([C@]2(C)C[C@H](C(=O)Nc3cnc(-n4nccn4)c(Cl)c3)c3cnc4cc(F)nn4c32)cn1` (single isomer, unassigned) [Example 22] showed a pIC50 of 7.00 to 8.00.

Compound `CCn1cc([C@@]2(C)C[C@@H](C(=O)Nc3cnc(-n4nccn4)c(Cl)c3)c3cnc4cc(F)nn4c32)cn1` (single isomer, unassigned) [Example 23] had a pIC50 of 6.00 to 7.00.

With `C[C@@]1(c2cnn(C(F)F)c2)C[C@@H](C(=O)Nc2cnc(-n3nccn3)c(Cl)c2)c2cnc3cc(F)nn3c21` (single isomer, unassigned) [Example 25], the pIC50 was not above 6.00.

`C[C@@]1(c2cnn(C(F)F)c2)C[C@H](C(=O)Nc2cnc(-n3nccn3)c(Cl)c2)c2cnc3cc(F)nn3c21` (single isomer, unassigned) [Example 26] gave a pIC50 of 7.00 to 8.00.

The compound `C[C@]1(c2cnn(C(F)F)c2)C[C@@H](C(=O)Nc2cnc(-n3nccn3)c(Cl)c2)c2cnc3cc(F)nn3c21` (single isomer, unassigned) [Example 27] gave a pIC50 not above 6.00.

As to `C[C@@]1(c2cnn(C3CC3)c2)C[C@@H](C(=O)Nc2cnc(-n3nccn3)c(Cl)c2)c2cnc3cc(F)nn3c21` (single isomer, unassigned) [Example 29], the pIC50 was not above 6.00.

For `C[C@@]1(c2cnn(C3CC3)c2)C[C@H](C(=O)Nc2cnc(-n3nccn3)c(Cl)c2)c2cnc3cc(F)nn3c21` (single isomer, unassigned) [Example 30], the pIC50 was 7.00 to 8.00.

The compound `C[C@]1(c2cnn(C3CC3)c2)C[C@@H](C(=O)Nc2cnc(-n3nccn3)c(Cl)c2)c2cnc3cc(F)nn3c21` (single isomer, unassigned) [Example 31] had a pIC50 not above 6.00.

Take `Cn1ccc([C@]2(C)C[C@@H](C(=O)Nc3cnc(-n4nccn4)c(Cl)c3)c3cnc4cc(F)nn4c32)n1` (single isomer, unassigned) [Example 33]: the pIC50 was not above 6.00.

Compound `Cn1ccc([C@]2(C)C[C@H](C(=O)Nc3cnc(-n4nccn4)c(Cl)c3)c3cnc4cc(F)nn4c32)n1` (single isomer, unassigned) [Example 34] gave a pIC50 of 6.00 to 7.00.

In turn, `Cn1ccc([C@@]2(C)C[C@@H](C(=O)Nc3cnc(-n4nccn4)c(Cl)c3)c3cnc4cc(F)nn4c32)n1` (single isomer, unassigned) [Example 35] gave a pIC50 of 6.00 to 7.00.

The pIC50 is the IC50 on a negative log10 scale, so that one unit is a factor of ten. Higher therefore signals a small IC50.
